# Tested on: OPG knockout mice
# Assay: Bone morphometry of lumbar trabecular bone and femoral cortical bone in OPG knockout mice given drug in feed
# Format: in vivo, mouse
# Conditions: 0.03% drug in paste feed, 4 weeks
# Description: OPG knockout mice (6 week-old) were divided into 3 groups with 7 mice being prepared for each group. These mice were obtained from CLEA Japan, Inc. and categorized into three groups: control group (Cont), HX531 group (HX), and LE 135 group (LE). LE135 is a compound synthesized as a nuclear receptor […] (RAR) antagonist.
# Paste feed is prepared by adding sterile water into and softening sterilized pellets in a dish. HX531 group and LE135 group were provided with the paste feed in which a corresponding drug was mixed. The amount of feed provided per day was fixed at 3 g per mouse in a solid state. The amount of drugs was calculated at 0.03% to the feed weight. Although the paste feed was exchanged everyday, almost no feed was left in all groups. A drug was administered successively for 4 weeks, and mice were double-labeled with tetracyclines and calceins by an abdominal administration 4 days and 2 days before they were sacrificed.
# While bone morphometry of femur (cortical bone) and lumbar (trabecular bone) was conducted, a histological observation of femur was made. Furthermore, a blood sample was taken before the sacrifice to measure a bone formation marker.
compound,measurement,setting,value
CN1c2ccc([N+](=O)[O-])cc2N=C(c2ccc(C(=O)O)cc2)c2cc3c(cc21)C(C)(C)CCC3(C)C [HX531],bone mass in a lumbar trabecular bone by bone morphometry,FIG. 1,large compared to the mice from the control group or mice provided with LE135
same,trabecula number in a lumbar trabecular bone by bone morphometry,FIG. 2,large compared to the mice from the control group or mice provided with LE135
same,bone resorption rate in a lumbar trabecular bone by bone morphometry,FIG. 7,significantly low
same,osteoclast surface in a lumbar trabecular bone by bone morphometry,FIG. 8,small compared to the mice from the control group
same,rarefaction surface/cortical bone in a femoral cortical bone by bone morphometry,FIG. 11,significantly low compared to the mice from the control group
same,porous surface in a femoral cortical bone by bone morphometry,FIG. 12,small
